Results: ChEMBL document CHEMBL1147880, “beta-Alkylthio indolyl carbinols: potent nonsteroidal antiandrogens with oral efficacy in a prostate cancer model” (Bioorg Med Chem Lett, 2007)
Calls of active or inactive are those of the source. The rule behind the calls is not given here.

Experiments:
[1] = system: Rattus norvegicus; experiment: Reduction of prostate weight in orally dosed immature rat; type: functional, Prostate gland; set-up: Activity: scale not given: the % may be the effect or the level left
[2] = system: LNCaP; experiment: Inhibition of tumor growth in LNCaP cells xenografted mouse at 100 mg/kg, po after 51 days; type: functional, organism-based; set-up: dose 100 mg/kg; conditions: Homo sapiens
[3] = Oral bioavailability in mature rat; type: ADME, organism-based; conditions: in vivo
[4] = system: Rattus norvegicus; experiment: Reduction of prostate weight in orally dosed mature rat; type: functional; conditions: Prostate gland, po, read-out: ID50 (the source's name)
[5] = target: T1, Androgen receptor (Homo sapiens) (UniProt P10275); experiment: Binding affinity to AR expressed in COS cells by whole-cell binding assay; type: cell-based
T1 sequence (whole entry): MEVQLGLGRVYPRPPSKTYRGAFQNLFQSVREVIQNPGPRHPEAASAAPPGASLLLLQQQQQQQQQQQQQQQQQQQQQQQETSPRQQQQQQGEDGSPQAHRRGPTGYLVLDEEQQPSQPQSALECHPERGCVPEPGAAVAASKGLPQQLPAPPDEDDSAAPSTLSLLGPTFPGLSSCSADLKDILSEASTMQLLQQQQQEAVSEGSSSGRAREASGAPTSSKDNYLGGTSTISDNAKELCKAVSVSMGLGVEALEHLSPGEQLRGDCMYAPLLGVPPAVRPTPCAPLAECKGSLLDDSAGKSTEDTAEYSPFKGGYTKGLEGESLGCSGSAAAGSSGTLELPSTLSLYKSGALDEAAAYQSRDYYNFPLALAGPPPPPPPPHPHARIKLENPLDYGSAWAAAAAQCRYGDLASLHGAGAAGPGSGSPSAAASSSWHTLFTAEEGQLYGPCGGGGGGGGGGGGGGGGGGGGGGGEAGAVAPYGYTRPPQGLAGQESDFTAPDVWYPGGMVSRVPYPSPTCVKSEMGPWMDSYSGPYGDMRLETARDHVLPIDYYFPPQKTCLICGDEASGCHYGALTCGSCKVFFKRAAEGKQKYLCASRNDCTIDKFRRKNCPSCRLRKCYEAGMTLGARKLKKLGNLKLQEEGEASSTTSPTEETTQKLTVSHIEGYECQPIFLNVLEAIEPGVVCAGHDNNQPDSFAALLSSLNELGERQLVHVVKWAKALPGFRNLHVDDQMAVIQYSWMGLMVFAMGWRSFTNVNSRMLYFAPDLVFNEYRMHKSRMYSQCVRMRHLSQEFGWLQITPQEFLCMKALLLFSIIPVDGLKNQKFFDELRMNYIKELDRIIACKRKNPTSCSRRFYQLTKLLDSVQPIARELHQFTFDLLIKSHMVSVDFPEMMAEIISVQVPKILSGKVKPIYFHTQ

[6] = system: Rattus norvegicus; experiment: Reduction of prostate weight in orally dosed castrated mature rat; type: functional, organism-based; conditions: Prostate gland
[7] = Half life in mature rat; type: ADME, organism-based; conditions: in vivo

CC[S+]([O-])C[C@](C)(O)c1cc2cc(C#N)c(C(F)(F)F)cc2[nH]1 (some centres not stated)
Activity [1]: 62%

CCS(=O)(=O)C[C@](C)(O)c1cc2cc(C#N)c(C(F)(F)F)cc2[nH]1
Activity [2]: Active | bioavailability [3]: 68% | ED50 [4]: 22 mg/kg | Activity [5]: Active | Activity [6]: inactive | Activity [1]: 100% | ID50 [1]: 0.89 mg/day | half-life [7]: 52 h

CCSC[C@](C)(O)c1[nH]c2cc(C(F)(F)F)c(C#N)cc2c1C
ED50 [4]: > 60 mg/kg | Activity [1]: 61%

O=[N+]([O-])c1cc2cc(C3(O)CCSC3)[nH]c2cc1C(F)(F)F (configuration not stated)
Activity [1]: 49%

CCSCC(C)(O)c1cc2cc([N+](=O)[O-])cc(C(F)(F)F)c2[nH]1 (configuration not stated)
Activity [1]: 66%

CCSCC(C)(O)Cc1cc2cc([N+](=O)[O-])c(C(F)(F)F)cc2[nH]1 (configuration not stated)
Activity ([1]; Prostate gland): inactive

CSC[C@@](C)(O)c1cc2cc([N+](=O)[O-])c(C(F)(F)F)cc2[nH]1
Activity [1]: 66%

CCSC[C@](C)(O)c1cc2cc(C#N)c(C(F)(F)F)cc2n1COC
Activity [1]: 37%

CCCCSC[C@@](C)(O)c1cc2cc([N+](=O)[O-])c(C(F)(F)F)cc2[nH]1
Activity [1]: 40%

CCSC[C@](C)(O)c1cc2cc(Cl)ccc2[nH]1
Activity ([1]; Prostate gland): inactive

CCSC[C@](C)(O)c1cc2cc(C#N)ccc2[nH]1
Activity ([1]; Prostate gland): inactive

CCSCC(O)c1cc2cc([N+](=O)[O-])c(C(F)(F)F)cc2[nH]1 (configuration not stated)
Activity [1]: 30%

CCSC[C@@](C)(OC)c1cc2cc([N+](=O)[O-])c(C(F)(F)F)cc2[nH]1
Activity [1]: 76%

CCSC[C@](C)(O)c1cc2cc(C#N)c(C(F)(F)F)cc2[nH]1 [listing 1 of 2 here]
Activity [1]: 100%

CC(C)CSC[C@@](C)(O)c1cc2cc([N+](=O)[O-])c(C(F)(F)F)cc2[nH]1
Activity [1]: 75%

CCSC[C@](C)(O)c1cc2cc(C#N)c(C)cc2[nH]1
Activity ([1]; Prostate gland): inactive

CCSC[C@](C)(O)c1cc2ccccc2[nH]1
Activity [1]: 26%

CCSC[C@](C)(O)c1cc2cc(C#N)c(C(F)(F)F)cc2n1CC(F)(F)F
Activity [1]: 53%

CSCC[C@@](C)(O)c1cc2cc([N+](=O)[O-])c(C(F)(F)F)cc2[nH]1
Activity [1]: 44%

CCSC[C@](C)(O)c1cc2cc(N)c(C(F)(F)F)cc2[nH]1
Activity ([1]; Prostate gland): inactive

CCSCC(O)(CSCC)c1cc2cc([N+](=O)[O-])c(C(F)(F)F)cc2[nH]1
Activity [1]: 32%

CCSC[C@](C)(O)c1cc2cc(C#N)ncc2[nH]1
Activity ([1]; Prostate gland): inactive

C[C@@](O)(CSCC(F)(F)F)c1cc2cc([N+](=O)[O-])c(C(F)(F)F)cc2[nH]1
Activity [1]: 46%

CC(O)(CS(=O)(=O)c1ccc(F)cc1)C(=O)Nc1ccc(C#N)c(C(F)(F)F)c1 (configuration not stated) [BICALUTAMIDE]
ED50 [4]: > 44 mg/kg | Activity [1]: 75% | ID50 [1]: 0.44 mg/day

C[C@@](O)(CSCc1cccs1)c1cc2cc([N+](=O)[O-])c(C(F)(F)F)cc2[nH]1
Activity [1]: 28%

CCSC[C@](C)(O)c1cc2cc(C#N)c(Cl)cc2[nH]1
Activity [1]: 83%

CCSC[C@](C)(O)c1cc2cc(Cl)c(Cl)cc2[nH]1
Activity ([1]; Prostate gland): inactive

CCSC[C@](C)(O)c1cc2cc([N+](=O)[O-])c(C(F)(F)F)cc2o1
Activity [1]: 38%

CCSC[C@](C)(O)c1cc2cc(F)c(Cl)cc2[nH]1
Activity [1]: 60%

CCSC[C@](C)(O)c1cc2cc(C#N)c(OC)cc2[nH]1
Activity ([1]; Prostate gland): inactive

C[C@@](O)(CSCc1ccccc1)c1cc2cc([N+](=O)[O-])c(C(F)(F)F)cc2[nH]1
Activity [1]: 54%

CCSC[C@@](C)(O)c1cc2cc(C#N)c(C(F)(F)F)cc2[nH]1
Activity ([1]; Prostate gland): inactive

CCc1c([C@@](C)(O)CS(=O)(=O)CC)[nH]c2cc(C(F)(F)F)c(C#N)cc12
ID50 [1]: 1.4 mg/day | half-life [7]: 0.9 h

CCSC[C@](O)(CC)c1cc2cc([N+](=O)[O-])c(C(F)(F)F)cc2[nH]1
Activity [1]: 73%

CC(C)SC[C@@](C)(O)c1cc2cc([N+](=O)[O-])c(C(F)(F)F)cc2[nH]1
Activity [1]: 42%

CCSC[C@](C)(O)c1cc2cc(Cl)c(C(F)(F)F)cc2[nH]1
Activity [1]: 54%

CCSC[C@](C)(O)c1cc2cc(C)c(C(F)(F)F)cc2[nH]1
Activity [1]: 22%

CCSC[C@](C)(O)c1cc2cc(C#N)c(C(F)(F)F)cc2n1C
Activity [1]: 43%

CCCSC[C@@](C)(O)c1cc2cc([N+](=O)[O-])c(C(F)(F)F)cc2[nH]1
Activity [1]: 40%

CCS(=O)(=O)C[C@](C)(O)c1[nH]c2cc(C(F)(F)F)c(C#N)cc2c1C
ED50 [4]: > 30 mg/kg | ID50 [1]: 2.4 mg/day | half-life [7]: 2 h

CCSC[C@](C)(O)c1cc2cc(C#N)c(C(F)(F)F)cc2n1CC
Activity [1]: 55%

CCSC[C@](C)(O)c1cc2cc(C#N)c(C(F)(F)F)cc2[nH]1 [listing 2 of 2 here]
ED50 [4]: 22 mg/kg | Activity [1]: 100% | ID50 [1]: 0.44 mg/day

C[C@@](O)(CSCc1ccco1)c1cc2cc([N+](=O)[O-])c(C(F)(F)F)cc2[nH]1
Activity [1]: 46%

CCSC[C@](C)(O)c1cc2cc([N+](=O)[O-])ccc2[nH]1
Activity [1]: 34%

CCSC[C@](C)(O)c1cc2cc(C#N)c(C(F)(F)F)cc2n1CC#N
Activity ([1]; Prostate gland): inactive

CCSC[C@@](C)(O)c1cc2cc([N+](=O)[O-])c(C(F)(F)F)cc2[nH]1
Activity [1]: 75%

CCSC[C@](C)(O)c1cc2cc(F)c(C(F)(F)F)cc2[nH]1
Activity [1]: 58%
